Results taken from publication PMC12394658, “Discovery of Zharp1-163 as a dual inhibitor of ferroptosis and necroptosis for the treatment of inflammatory disorders and kidney injury” (Cell Death Discovery, 2025).

Assays:
Assay in all cases: biochemical
Design in all cases: Kinase selectivity panel of 81 human kinases, ADP-Glo or HTRF, per cent inhibition at 1 uM
p38α = molecular target: T1, p38α (Homo sapiens, UniProt Q16539)
T1 construct: gene MAPK14
Description: (§1) We next sought to determine the binding affinity of Zharp1-163 for RIPK1 or RIPK3 via a binding assay (Fig. 4A). […] Further, we evaluated the selectivity of Zharp1-163 against a panel of 81 kinases (at 1000 nM). […] To elucidate the binding interactions between Zharp1-163 and RIPK1 kinase, we conducted molecular docking studies using the RIPK1 crystal structure (PDB ID: 4NEU). The predicted binding conformations and interaction patterns between Zharp1-163 and the RIPK1 kinase domain are presented in Fig. 4D, E. Like the cocrystallized ligand in the 4NEU crystal complex, Zharp1-163 was predicted to act as a typical type II kinase inhibitor, interacting with the DLG (Asp156-Leu157-Gly158)-out conformation of RIPK1 (Fig. 4D, E). The 2-aminoimidazo [1,2-a] pyridine moiety of Zharp1-163 formed hydrogen bonds with Met95 in the hinge region. Furthermore, the carboxylate group of Zharp1-163 established hydrogen bonds with Asp156 in the DLG-out region. Additionally, the saturated ring of Zharp1-163 was deeply embedded within the hydrophobic allosteric pocket formed by the residues Met66, Met67, Leu70, Val76, Leu129, and Leu159, which is created by the DLG-out conformation in RIPK1 (Fig. 4D, E).  Fig. 4 Zharp1-163 is a selective inhibitor of RIPK1 kinase activity. A Binding affinity curve of Zharp1-163 with RIPK1 and RIPK3. B In an in vitro kinase activity assay, recombinant RIPK1 was incubated with Zharp1-163, after which RIPK1 kinase activity was determined by measuring ATP levels via a luciferase reporter assay system. […] Kinases are marked with dots, where the color of each kinase indicates the level of inhibition achieved by Zharp1-163. D Predicted binding conformation of Zharp1-163. E Schematic representation of the interaction patterns between Zharp1-163 and the key residues in the binding pocket of the RIPK1 kinase. […] NIH3T3-RIPK3 cells were pretreated with the indicated concentrations of Zharp1-163 for 2 h and then treated with AP20187 (100 nM) for 24 h. Cell viability was determined by measuring ATP levels. […] HeLa-MLKL (1–190) cells were pretreated with the indicated concentrations of Zharp1-163 for 2 h and subsequently treated with AP20187 (100 nM) for 24 h. Cell viability was determined by measuring ATP levels. H Viability of IFNβ-primed MEFs at 18 h after stimulation with poly(I:C) plus z-VAD and treatment with Zharp1-163 (10 μM). I Effects of different concentrations of Zharp1-163 on WT or RIPK1 KO HT-29 cells. Cell viability was determined by measuring ATP levels. The data are presented as the mean ± SD of triplicate samples.

CHK1 = molecular target: T2, CHK1 (Homo sapiens, UniProt O14757)
T2 construct: gene CHEK1
Description: as §1

JAK3 = JAK3 (Homo sapiens, UniProt P52333)
Sequence of JAK3 (P52333 whole entry): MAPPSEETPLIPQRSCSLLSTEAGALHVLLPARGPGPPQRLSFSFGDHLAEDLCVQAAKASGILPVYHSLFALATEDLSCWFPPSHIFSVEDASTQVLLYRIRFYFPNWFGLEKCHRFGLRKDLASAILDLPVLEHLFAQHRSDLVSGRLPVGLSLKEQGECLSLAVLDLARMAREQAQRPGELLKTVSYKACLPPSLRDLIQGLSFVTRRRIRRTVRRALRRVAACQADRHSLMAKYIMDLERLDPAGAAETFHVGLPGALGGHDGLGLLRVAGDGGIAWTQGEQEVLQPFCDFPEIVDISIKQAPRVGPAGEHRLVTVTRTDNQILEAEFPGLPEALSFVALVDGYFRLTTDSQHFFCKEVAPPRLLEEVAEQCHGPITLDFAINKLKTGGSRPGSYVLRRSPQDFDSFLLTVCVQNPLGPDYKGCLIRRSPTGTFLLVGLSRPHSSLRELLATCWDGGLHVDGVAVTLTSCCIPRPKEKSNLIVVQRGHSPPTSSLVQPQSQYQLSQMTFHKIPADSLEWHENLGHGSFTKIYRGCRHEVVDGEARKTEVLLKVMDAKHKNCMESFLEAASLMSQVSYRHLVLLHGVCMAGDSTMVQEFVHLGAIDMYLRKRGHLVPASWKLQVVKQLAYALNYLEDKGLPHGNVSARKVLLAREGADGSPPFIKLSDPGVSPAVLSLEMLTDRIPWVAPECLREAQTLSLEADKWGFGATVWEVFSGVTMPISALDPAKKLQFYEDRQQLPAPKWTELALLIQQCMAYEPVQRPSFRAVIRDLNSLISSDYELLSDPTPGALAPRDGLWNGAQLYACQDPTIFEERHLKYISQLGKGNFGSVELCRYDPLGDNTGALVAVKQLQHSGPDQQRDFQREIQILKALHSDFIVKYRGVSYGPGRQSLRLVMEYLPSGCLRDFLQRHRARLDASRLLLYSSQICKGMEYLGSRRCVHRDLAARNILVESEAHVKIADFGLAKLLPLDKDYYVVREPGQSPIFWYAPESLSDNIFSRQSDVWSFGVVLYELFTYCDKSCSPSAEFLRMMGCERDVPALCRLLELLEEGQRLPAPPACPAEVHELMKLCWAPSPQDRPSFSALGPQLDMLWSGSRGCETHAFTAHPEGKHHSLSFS
Description: as §1

p70S6K = molecular target: T3, p70S6K (Homo sapiens, UniProt P23443)
T3 construct: gene RPS6KB1
T3 sequence (P23443 whole entry): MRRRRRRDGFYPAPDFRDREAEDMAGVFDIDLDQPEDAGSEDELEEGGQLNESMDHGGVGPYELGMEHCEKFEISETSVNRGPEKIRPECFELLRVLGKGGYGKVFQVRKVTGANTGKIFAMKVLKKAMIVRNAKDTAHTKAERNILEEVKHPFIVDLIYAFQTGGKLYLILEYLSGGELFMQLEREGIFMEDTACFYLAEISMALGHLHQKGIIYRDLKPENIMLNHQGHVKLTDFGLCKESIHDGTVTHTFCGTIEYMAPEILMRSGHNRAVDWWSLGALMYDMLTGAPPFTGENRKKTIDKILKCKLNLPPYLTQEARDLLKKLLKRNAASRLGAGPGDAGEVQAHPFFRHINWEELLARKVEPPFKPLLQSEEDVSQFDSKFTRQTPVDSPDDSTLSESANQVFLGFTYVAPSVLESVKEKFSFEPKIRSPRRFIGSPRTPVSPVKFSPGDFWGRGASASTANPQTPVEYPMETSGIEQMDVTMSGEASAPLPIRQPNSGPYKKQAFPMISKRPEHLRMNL
Description: as §1

RSK1 = molecular target: T4, RSK1 (Homo sapiens, UniProt Q15418)
T4 construct: gene RPS6KA1
Description: as §1

CDK1/CycE1 = CDK1/CycE1 (Homo sapiens, UniProt P06493)
Description: as §1

CHK2 = molecular target: T5, CHK2 (Homo sapiens, UniProt O96017)
T5 construct: gene CHEK2
T5 sequence (O96017 whole entry): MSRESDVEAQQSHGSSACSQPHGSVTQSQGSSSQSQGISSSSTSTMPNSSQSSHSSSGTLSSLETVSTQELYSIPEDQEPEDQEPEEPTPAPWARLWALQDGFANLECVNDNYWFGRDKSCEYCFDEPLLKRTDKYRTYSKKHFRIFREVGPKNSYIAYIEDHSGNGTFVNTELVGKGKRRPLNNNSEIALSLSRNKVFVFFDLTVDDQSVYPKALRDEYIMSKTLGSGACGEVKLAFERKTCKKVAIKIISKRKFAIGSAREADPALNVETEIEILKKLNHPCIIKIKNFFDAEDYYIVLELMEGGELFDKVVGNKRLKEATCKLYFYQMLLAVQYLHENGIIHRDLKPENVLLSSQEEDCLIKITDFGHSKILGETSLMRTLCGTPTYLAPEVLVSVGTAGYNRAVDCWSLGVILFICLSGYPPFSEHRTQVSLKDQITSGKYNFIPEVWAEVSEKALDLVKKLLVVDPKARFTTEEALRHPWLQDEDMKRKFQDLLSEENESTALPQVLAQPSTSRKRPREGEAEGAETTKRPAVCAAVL
Description: as §1

Erk2 = molecular target: T6, Erk2 (Homo sapiens, UniProt P28482)
T6 construct: gene MAPK1
Description: as §1

IRAK4 = IRAK4 (Homo sapiens, UniProt Q9NWZ3)
Sequence of IRAK4 (Q9NWZ3 whole entry): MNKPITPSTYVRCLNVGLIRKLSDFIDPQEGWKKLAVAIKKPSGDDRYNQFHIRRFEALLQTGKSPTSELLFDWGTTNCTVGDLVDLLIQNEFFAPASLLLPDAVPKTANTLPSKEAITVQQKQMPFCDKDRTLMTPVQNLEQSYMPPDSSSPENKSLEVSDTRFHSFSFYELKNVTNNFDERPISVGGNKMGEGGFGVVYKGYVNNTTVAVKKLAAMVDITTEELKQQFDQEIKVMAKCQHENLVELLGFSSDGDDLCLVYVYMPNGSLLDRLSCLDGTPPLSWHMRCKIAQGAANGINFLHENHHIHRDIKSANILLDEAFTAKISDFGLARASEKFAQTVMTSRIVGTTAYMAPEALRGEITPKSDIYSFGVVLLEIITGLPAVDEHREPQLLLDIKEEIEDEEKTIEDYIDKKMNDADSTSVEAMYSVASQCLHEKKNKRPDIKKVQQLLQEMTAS
Description: as §1

PKCα = molecular target: T7, PKCα (Homo sapiens, UniProt P17252)
T7 construct: gene PRKCA
Description: as §1

PDGFRα = molecular target: T8, PDGFRα (Homo sapiens, UniProt P16234)
T8 construct: gene PDGFRA
Description: as §1

PEK = molecular target: T9, PEK (Homo sapiens, UniProt Q9NZJ5)
T9 construct: gene EIF2AK3
T9 sequence (Q9NZJ5 whole entry): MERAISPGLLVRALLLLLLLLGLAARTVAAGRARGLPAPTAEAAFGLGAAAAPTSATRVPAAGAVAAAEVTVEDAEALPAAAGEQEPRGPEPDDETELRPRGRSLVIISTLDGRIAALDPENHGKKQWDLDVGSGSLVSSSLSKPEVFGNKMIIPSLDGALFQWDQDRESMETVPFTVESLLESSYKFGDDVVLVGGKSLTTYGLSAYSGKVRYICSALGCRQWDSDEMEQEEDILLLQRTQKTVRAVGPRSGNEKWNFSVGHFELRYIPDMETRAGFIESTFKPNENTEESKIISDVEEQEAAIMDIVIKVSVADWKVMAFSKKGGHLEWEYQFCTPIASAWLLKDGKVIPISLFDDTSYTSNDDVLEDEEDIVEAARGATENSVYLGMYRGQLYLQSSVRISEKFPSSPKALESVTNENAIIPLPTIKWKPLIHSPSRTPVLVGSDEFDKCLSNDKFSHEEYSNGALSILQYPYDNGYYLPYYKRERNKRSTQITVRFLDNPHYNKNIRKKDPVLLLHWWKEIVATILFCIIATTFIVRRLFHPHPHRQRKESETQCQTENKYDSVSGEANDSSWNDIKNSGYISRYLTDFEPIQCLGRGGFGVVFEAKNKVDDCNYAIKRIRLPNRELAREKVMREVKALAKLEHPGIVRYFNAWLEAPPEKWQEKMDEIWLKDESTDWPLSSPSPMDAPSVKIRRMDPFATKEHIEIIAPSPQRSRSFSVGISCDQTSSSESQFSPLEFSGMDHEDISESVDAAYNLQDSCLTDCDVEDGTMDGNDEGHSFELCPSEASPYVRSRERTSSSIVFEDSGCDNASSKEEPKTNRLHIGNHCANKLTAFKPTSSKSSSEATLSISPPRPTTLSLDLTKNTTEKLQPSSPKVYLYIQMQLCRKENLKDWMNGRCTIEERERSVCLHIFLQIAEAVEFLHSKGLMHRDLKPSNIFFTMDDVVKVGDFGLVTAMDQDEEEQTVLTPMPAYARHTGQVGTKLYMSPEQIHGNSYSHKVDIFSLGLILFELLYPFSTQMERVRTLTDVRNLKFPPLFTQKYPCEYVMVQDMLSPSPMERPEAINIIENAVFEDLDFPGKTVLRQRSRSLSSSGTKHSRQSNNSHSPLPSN
Description: as §1

CDK2/CycE1 = CDK2/CycE1 (Homo sapiens, UniProt P24941)
Description: as §1

PLK1 = PLK1 (Homo sapiens, UniProt P53350)
Sequence of PLK1 (P53350 whole entry): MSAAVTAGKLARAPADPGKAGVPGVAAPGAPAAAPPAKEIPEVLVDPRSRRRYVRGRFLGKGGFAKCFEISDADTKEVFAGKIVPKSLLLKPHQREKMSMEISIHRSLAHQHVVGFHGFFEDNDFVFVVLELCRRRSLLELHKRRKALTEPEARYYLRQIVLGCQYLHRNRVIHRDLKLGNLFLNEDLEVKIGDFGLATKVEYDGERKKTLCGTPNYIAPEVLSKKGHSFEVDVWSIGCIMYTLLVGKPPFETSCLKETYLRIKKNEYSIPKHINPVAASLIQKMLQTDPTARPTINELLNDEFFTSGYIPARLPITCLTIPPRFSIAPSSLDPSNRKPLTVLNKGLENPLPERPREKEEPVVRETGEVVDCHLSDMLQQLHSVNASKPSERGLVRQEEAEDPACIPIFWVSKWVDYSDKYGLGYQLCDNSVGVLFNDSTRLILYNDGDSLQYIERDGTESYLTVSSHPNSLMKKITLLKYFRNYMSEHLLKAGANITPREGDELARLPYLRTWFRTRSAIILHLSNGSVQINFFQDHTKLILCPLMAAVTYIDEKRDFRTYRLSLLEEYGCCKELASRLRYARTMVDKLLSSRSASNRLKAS
Description: as §1

SMILES: Nc1cn2cc(-c3cnc4c(c3)N(C(=O)OC3CCCCC3)CCO4)ccc2n1 [Zharp1-163]
- inhibition at 1 µM (p38α; replicate Data1): 11.8%
- inhibition at 1 µM (p38α; replicate Data2): 9.57%
- inhibition at 1 µM (CHK1; replicate Data1): 16.8%
- inhibition at 1 µM (CHK1; replicate Data2): 10.4%
- inhibition at 1 µM (JAK3; replicate Data1): -1.37%
- inhibition at 1 µM (JAK3; replicate Data2): 7.33%
- inhibition at 1 µM (p70S6K; replicate Data1): -3.27%
- inhibition at 1 µM (p70S6K; replicate Data2): -3.18%
- inhibition at 1 µM (RSK1; replicate Data1): 6.09%
- inhibition at 1 µM (RSK1; replicate Data2): 5.81%
- inhibition at 1 µM (CDK1/CycE1; replicate Data1): 5.77%
- inhibition at 1 µM (CDK1/CycE1; replicate Data2): 6.95%
- inhibition at 1 µM (CHK2; replicate Data1): 15.8%
- inhibition at 1 µM (CHK2; replicate Data2): 1.85%
- inhibition at 1 µM (Erk2; replicate Data1): 17.9%
- inhibition at 1 µM (Erk2; replicate Data2): 10.3%
- inhibition at 1 µM (IRAK4; replicate Data1): 8.12%
- inhibition at 1 µM (IRAK4; replicate Data2): 17.2%
- inhibition at 1 µM (PKCα; replicate Data1): -5.43%
- inhibition at 1 µM (PKCα; replicate Data2): -7.15%
- inhibition at 1 µM (PDGFRα; replicate Data1): -2.74%
- inhibition at 1 µM (PDGFRα; replicate Data2): 4.62%
- inhibition at 1 µM (PEK; replicate Data1): 1.73%
- inhibition at 1 µM (PEK; replicate Data2): 19.4%
- inhibition at 1 µM (CDK2/CycE1; replicate Data1): 3.25%
- inhibition at 1 µM (CDK2/CycE1; replicate Data2): -0.65%
- inhibition at 1 µM (PLK1; replicate Data1): -5.06%
- inhibition at 1 µM (PLK1; replicate Data2): -18%
